Source: US10563197B2, “Use of a combination of Dbait molecule and PARP inhibitors to treat cancer” (INSTITUT CURIE, priority 2015, dated 2020)

Columns and labels:
Type in all cases: cell-based, human
HCC38 = assay: Cell survival, trypan blue counting; conditions: 4.80 μM of AsiDNA and/or 0.1 μM of Ola; day 6 after treatment
Description: (§3) Cells were grown according to the supplier's instructions. Cell lines were maintained at 37° C. in a humidified atmosphere at 5% CO2.
(§4) AsiDNA or PARPi cytotoxicity was measured by relative survival and cell death quantification. Adherent cells were seeded in 24-well culture plates at appropriate densities and incubated 24 hours at 37° C. before AsiDNA and/or PARPi addition. Cells were harvested day 6aftertreatment, stained with 0.4% trypan blue (Sigma Aldrich, Saint-Louis, USA) and counted with a Burker chamber. Cell survival was calculated as ratio of living treated cells to living mock-treated cells. Cell death was calculated as the number of dead cells on the total number of counted cells. Additivity of the toxicity was calculated by the product of cell survivals to AsiDNA and cell survivals to PARPi.

HCT116 = assay: Cell survival, trypan blue counting; conditions: 4.80 μM of AsiDNA and/or 0.1 μM of Ola; day 6 after treatment
Description: as §3, §4

MO59K = assay: Cell survival, trypan blue counting; conditions: 4.80 μM of AsiDNA and/or 0.1 μM of Ola; day 6 after treatment
Description: as §3, §4

3 BC cell lines = assay: Combined treatment survival in BC cell lines (FIG. 6, 7, 12); conditions: FIG. 7
Description: Efficacy of AsiDNA (4. 8 μM), olaparib (0, 0.1 and 1 μM) or both was monitored 6 days after treatment by cell counting after trypan blue labeling. (A) Percentage of living cells relative to non-treated condition (NT). (B) Percentage of dead cells. Data are expressed as mean+Sc.D. of at least 2 independent experiments. Dotted lines indicate the calculated cell survivals if additivity between AsiDNA and olaparib.
Efficacy of AsiDNA (4.8 μM), veliparib (0, 10 and 50 μM) or both was monitored 6 days after treatment by trypan blue staining. (A) Percentage of living cells relative to non-treated condition (NT). (B) Percentage of dead cells. Dotted lines indicate the calculated cell survivals if additivity between AsiDNA and veliparib.
The inventors monitored cell survival to combined treatment of 3 BC and 2 non-tumor cell lines with different sensitivities to Ola and AsiDNA alone (FIG. 6; Table 1). […] However, the combination remained more efficient or at least equal to the expected additive effect at all the tested doses. […] In contrast, the normal cells were insensitive to both, the combined and the single treatments with AsiDNA and Ola (FIG. 6; Table 1).

XRCC1 = assay: XRCC1-eYFP recruitment to laser damage sites in MDAMB231 cells; conditions: MDAMB231, 24 h of treatment with Ola (1 μM) and/or AsiDNA (16 μM)
Description: FIG. 8: Olaparib inhibits XRCC1 recruitment to damage sites independently of AsiDNA. (A) Representative images of XRCC1-eYFP recruitment 40 secondes after laser damage and (B) kinetic of XRCC1-eYFP recruitment in MDAMB231 cells after 24 h of treatment with Ola (1 μM) and/or AsiDNA (16 μM). ns: not significant; ****: p<0.0001. These experiments were performed with a Leica SP5 confocal system, attached to a DMI6000 stand using a 63/1.4 objective, under a controlled environment (37° C., 5% CO2). All records were made using the appropriate sampling frequency (512_512 images, line average of four and zooming set to eight) and an argon laser line (514 nm for YFP) adapted to the fluorescent protein of interest. In the first step, two images were acquired within a period of 2-3 s at a laser energy setting sufficiently low not to induce any photodynamic damage. The 405-nm laser line (diode) was then set to maximum output for 100 ms and focused onto a single spot of constant size (176 nm) within the nucleus to cause a point of photo damage with a reproducible amount of energy. Recruitment of the protein of interest was then monitored by fluorescence using the same setting as for the pre-damage sequence. Laser damage was induced 24 h after treatment with AsiDNA (16 μM), olaparib (1 μM) or both. Images were captured at 2 s intervals for the following 52 s. […]

MCF12A = assay: Cell survival, trypan blue counting; conditions: 4.80 μM of AsiDNA and/or 0.1 μM of Ola; day 6 after treatment
Description: as §3, §4

[1] = tested on: Breast cancer cell lines MDAMB231; assay: Cell survival with DT01 and PARP inhibitors (Example 1, FIG. 1); conditions: DT01 100 or 333 μg/ml plus Olaparib 0.1, 1 μM or Veliparib 1, 10, 50 μM; 6 days
Description: Breast cancer cell lines MDAMB231 were treated with 100 μg/ml (Black, Squares) or 333 μg/ml (Grey, Crosses) of DT01 or no DT01 (Black, Diamond) and exposed to either 0, 0.1 and 1 μM of Olaparib (upper panel) or 1, 10 and 50 μM Veliparib (lower panel). Survival was measured 6 days after treatment using trypan blue to detect living cells. The data are presented as % of the non-treated control.
The human cell lines were grown in complete RPMI (Gibco, Cergy Pontoise, France) supplemented with 10% fetal bovine serum (ATGC, Orléans, France), 1% sodium pyruvate, streptomycin ([…]) and penicillin ([…]) (Invitrogen, Carlsbad, Calif., USA). Cells were maintained at 37° C. under a 5% CO2 atmosphere, at 100% humidity. Treatments were performed by adding nucleotides (DT01 and others) or/and PARP inhibitors at time zero in medium without serum. The medium was changed with fresh medium containing fetal bovine serum 24 hours after beginning of treatment. Cells were let to grow for 4 additional days (5 days after treatment), treated with trypsin and counted for total number of cells. Trypan blue (0.4%) was added for counting the living cells (uncolored) in the population.

BC227 = assay: Cell survival, trypan blue counting; conditions: 4.80 μM of AsiDNA and/or 0.1 μM of Ola; day 6 after treatment; listed as Ola
Description: as §3, §4

[2] = tested on: 3 immortalized mammary cell lines (MCF10A, MCF12A and 184B5); assay: Cell death and proliferation in non-tumor controls; conditions: 0.1 μM for Ola and 4.8 μM for AsiDNA
Description: (§1) Efficacy of Ola and AsiDNA was assessed by measuring cell death and proliferation in 12BC cell lines including 4BRCA-mutated cell lines (FIGS. 4A and B and FIG. 5). In addition, HeLa cells silenced for BRCA1 or BRCA2 genes were used as a control of BRCA mutation factor and 3 immortalized mammary cell lines (MCF10A, MCF12A and 184B5) as non-tumor controls. The concentration of the drugs (0.1 μM for Ola and 4.8 μM for AsiDNA) were chosen based on the 75-80% survival in the BC227 BRCA2^−/− mutant. […] Ola and AsiDNA treatments had no effect on the three control non-tumor cell lines.
(§2) Cells were grown according to the supplier's instructions.

BRCA^−/− cell lines = assay: Cell death and proliferation in BRCA-mutated cell lines; conditions: 0.1 μM Ola, 4.8 μM AsiDNA; sensitive = difference in % dead cells higher than two-fold
Description: as §1, §2

MCF7 = assay: Cell death and proliferation; conditions: 0.1 μM Ola, 4.8 μM AsiDNA; sensitive = difference in % dead cells higher than two-fold
Description: as §1, §2

BT20 = assay: Cell death and proliferation; conditions: 0.1 μM Ola, 4.8 μM AsiDNA; sensitive = difference in % dead cells higher than two-fold
Description: as §1, §2

HCC70 = assay: Cell death and proliferation; conditions: 0.1 μM Ola, 4.8 μM AsiDNA; sensitive = difference in % dead cells higher than two-fold
Description: as §1, §2

HCC1143 = assay: Cell death and proliferation; conditions: 0.1 μM Ola, 4.8 μM AsiDNA; sensitive = difference in % dead cells higher than two-fold
Description: as §1, §2

O=C(c1cc(Cc2n[nH]c(=O)c3ccccc23)ccc1F)N1CCN(C(=O)C2CC2)CC1 [Olaparib, 4-[(3-[(4-cyclopropylcarbonyl)piperazin-4-yl]carbonyl)-4-fluorophenyl]methyl(2H)-phthalazin-1-one]
Survival (%/NT) (HCC38): 66.7 %/NT | Survival (%/NT) (HCT116): 82.9 %/NT | Survival (%/NT) (MO59K): 117.3 %/NT | dose dependence of efficacy of single treatments (3 BC cell lines): dose dependent | XRCC1 foci recruitment (XRCC1): significantly delayed | Survival (%/NT) (MCF12A): 88.5 %/NT | survival to combined treatment with DT01 versus expected added effect of both single treatments [1]: synergic effect | Survival (%/NT) (BC227): 75.3 %/NT | effect on cell death and proliferation [2]: no effect | sensitivity to treatment (BRCA^−/− cell lines): sensitive to both treatments | sensitivity to treatment (MCF7): resistant to both treatments | sensitivity to treatment (BT20): resistant to both treatments | sensitivity to treatment (HCC70): resistant to both treatments | sensitivity to treatment (HCC1143): sensitive only to AsiDNA
